Here are results for one compound from patent publication US20230241044A1, “TREATMENT FOR PSORIASIS AND SKIN INFLAMMATORY DISEASES” (ZYDUS LIFESCIENCES LIMITED, priority 2020, published 2023).

The structures appear in SMILES notation.

The conditions of experiment [1]: clinical trials; cited from earlier work.
The test system of experiment [2] is IMQ-induced psoriasis-like skin lesions in mice. The experiment is described as follows: Imiquimod-induced psoriasis in mice, topical treatment. It is filed as in vivo, male C57 mice. The settings on record: topical 5% solution. The method, then: The 8 to 10 week old male C57 mice (18-20 g) received a daily topical dose of commercially available Imiquimod (IMQ) cream (5%, Imiquad;) on the shaved back and the right ear for 5 consecutive days, translating in a daily dose of 3.125 mg of the active compound to establish a model of IMQ-induced psoriasis. To examine the efficacy of topical solution of compound of formula (Ia), mice were randomly divided into 3 groups: IMQ-induced model group (IMQ) and IMQ + 5% compound of formula (Ia) solution and control group. Treatment was started on day 1 after the topical application of IMQ and continued upto day 5. All animals were assessed for the severity of the psoriasis-like skin condition, using 3 elements of the Psoriasis Area Severity Index (PASI), to assign a score of 0-4 (0, none; 1, mild; 2, moderate; 3, severe; 4, very severe) for each of the parameters erythema, scaling and thickness. The cumulative score (erythema plus scaling plus thickness) served to indicate the severity of inflammation (scale 0-12). Ear thickness was measured every day using thickness meter.

The test system of experiment [3] is Mannan-induced psoriasis in mice. In words: Mannan-induced psoriasis in mice, topical treatment. It is filed as in vivo, male C57 mice. The conditions noted are these: topical 2.5% solution, day 5, FIG. 3. The method, then: The 8- to 10-week-old male C57 mice (18-20 g) received a single dose of mannan from Saccharomyces cerevisiae (20 mg/kg, intraperitoneal route, dissolved in saline). To examine the efficacy of topical solution of desidustat, mice were randomly divided into 3 groups: Normal control, mannan control- model group (MAN control), and mannan (MAN) + 2.5% compound of formula (Ia) solution. Normal control animals were given normal saline instead of mannan. Treatment was started on day 0 along with injection of mannan and continued up to day 5. Right ear thickness was measured every day using thickness meter.

Another experiment relates to HIF. The settings on record: animal model of anemia; Jain et al., 2019; Joharapurkar et al., 2018; cited from earlier work.

`O=C(O)CNC(=O)c1c(O)c2ccccc2n(OCC2CC2)c1=O` [compound of formula (Ia), Desidustat]: in experiment [1], the effect on haemoglobin result is listed as “improves haemoglobin”. The “reduction of back skinfold thickness compared to IMQ” value in experiment [2] (FIG. 2B) worked out at 15.5 ± 4.0%. Besides, the “PASI score decreased to, compared with IMQ-control” value in experiment [2] (cumulative score, FIG. 1D) amounted to 41.9 ± 7.6%. In experiment [2] (day 1 to day 5, FIG. 1A-C), the “reduction of erythema score (second mention) compared with IMQ-control” value is 63.6 ± 11.5%, the “reduction of erythema score compared with IMQ-control” value was found to be 46.2 ± 7.7% and the “reduction of skin thickness score compared with IMQ-control” value is 26.3 ± 10.4%. For the same compound, the “thickening of the ear reduced to, compared to IMQ-control” value in experiment [2] (right ear, FIG. 2A) is given as 30.8 ± 2.6%. In addition, the “reduction of right ear thickness compared to MAN control group” value in experiment [3] is 15.8 ± 2.5%. The “effect on HIF and erythropoiesis” value in the experiment with HIF was “stabilizes HIF and thus induces erythropoiesis”.
